Assay results reported in PubChem BioAssay AID248 (DTP/NCI, 2004).
“And” between values parts separate entries of the source, which are not always exact repeats. Equal values may be shown once. Inconclusive results and toxic doses are left out.

Test system: L1210 leukemia ip in BDF1 mice, survival T/C
Experiment: NCI In Vivo Anticancer Drug Screen. Data for tumor model L1210 Leukemia (intraperitoneal) in B6D2F1 (BDF1) mice
Conditions: endpoint: mean survival time, higher = longer survival
Outline: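 Survival endpoint. Drug-treated group vs vehicle group, expressed as T divided by C. Tumor passaged by transplantation.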

O=C(Nc1ccc(NC2=NCCN2)cc1)c1ccc(C(=O)Nc2ccc(NC3=NCCN3)cc2)cc1
T/C (dose: 0.25 mg/kg/injection, schedule: Q01DX001 (ip), vehicle: saline): 109 % of control | T/C (dose: 0.3 mg/kg/injection, schedule: Q#A X Z (ip), vehicle: saline): 116 % of control | T/C (dose: 0.45 mg/kg/injection, schedule: Q#A X Z (ip), vehicle: saline): 122 % of control | T/C (dose: 0.5 mg/kg/injection, schedule: Q01DX001 (ip), vehicle: saline): 110 % of control | T/C (dose: 0.5 mg/kg/injection, schedule: Q07DX Z (ip), vehicle: saline): 97 % of control | T/C (dose: 0.63 mg/kg/injection, schedule: Q02DX004 (im), vehicle: saline): 104 % of control | T/C (dose: 0.9 mg/kg/injection, schedule: Q01DX Z (ip), vehicle: methylcellulose (MC)): 104 % of control | T/C (dose: 0.94 mg/kg/injection, schedule: Q01DX Z (ip), vehicle: saline): 103 % of control | T/C (dose: 1.0 mg/kg/injection, schedule: Q01DX001 (ip), vehicle: saline): 109 % of control | T/C (dose: 1.0 mg/kg/injection, schedule: Q07DX Z (ip), vehicle: saline): 106 % of control | T/C (dose: 1.0 mg/kg/injection, schedule: Q#A X Z (ip), vehicle: saline): 180 % of control | T/C (dose: 1.25 mg/kg/injection, schedule: Q01DX Z (ip), vehicle: methylcellulose (MC)): 109 % of control | T/C (dose: 1.25 mg/kg/injection, schedule: Q02DX004 (im), vehicle: saline): 101 % of control | T/C (dose: 1.3 mg/kg/injection, schedule: Q01DX Z (ip), vehicle: saline): 120 % of control | T/C (dose: 1.3 mg/kg/injection, schedule: Q01DX Z (sc), vehicle: saline): 93 % of control | T/C (dose: 1.5 mg/kg/injection, schedule: Q#A X Z (ip), vehicle: saline): 191 % of control | T/C (dose: 1.8 mg/kg/injection, schedule: Q01DX Z (ip), vehicle: methylcellulose (MC)): 116 % of control | T/C (dose: 1.88 mg/kg/injection, schedule: Q01DX Z (ip), vehicle: saline): 200 % of control | T/C (dose: 2.0 mg/kg/injection, schedule: Q01DX001 (ip), vehicle: saline): 113 % of control | T/C (dose: 2.0 mg/kg/injection, schedule: Q01DX Z (ip), vehicle: saline): 177 % of control | T/C (dose: 2.0 mg/kg/injection, schedule: Q01DX Z (sc), vehicle: saline): 101 % of control | T/C (dose: 2.0 mg/kg/injection, schedule: Q07DX Z (ip), vehicle: saline): 103 % of control | T/C (dose: 2.5 mg/kg/injection, schedule: Q01DX Z (ip), vehicle: methylcellulose (MC)): 150 % of control | T/C (dose: 2.5 mg/kg/injection, schedule: Q02DX004 (im), vehicle: saline): 108 % of control | T/C (dose: 3.0 mg/kg/injection, schedule: Q01DX Z (ip), vehicle: saline): 239 % of control | T/C (dose: 3.0 mg/kg/injection, schedule: Q01DX Z (sc), vehicle: saline): 113 % of control | T/C (dose: 3.75 mg/kg/injection, schedule: Q01DX Z (ip), vehicle: saline): 264 % of control | T/C (dose: 4.0 mg/kg/injection, schedule: Q01DX001 (ip), vehicle: saline): 121 % of control | T/C (dose: 4.0 mg/kg/injection, schedule: Q03DX Z (ip), vehicle: saline): 121 % of control | T/C (dose: 5.0 mg/kg/injection, schedule: Q01DX Z (ip), vehicle: methylcellulose (MC)): 293 % of control | T/C (dose: 5.0 mg/kg/injection, schedule: Q02DX004 (im), vehicle: saline): 106 % of control | T/C (dose: 6.0 mg/kg/injection, schedule: Q03DX Z (ip), vehicle: saline): 161 % of control | T/C (dose: 6.0 mg/kg/injection, schedule: Q07DX Z (ip), vehicle: saline): 198 % of control | T/C (dose: 7.5 mg/kg/injection, schedule: Q01DX Z (ip), vehicle: methylcellulose (MC)): 268 % of control | T/C (dose: 7.5 mg/kg/injection, schedule: Q01DX Z (ip), vehicle: saline): 265 % of control | T/C (dose: 8.0 mg/kg/injection, schedule: Q#A X Z (ip), vehicle: saline): 110 % of control | T/C (dose: 9.0 mg/kg/injection, schedule: Q07DX Z (ip), vehicle: saline): 154 % of control and 193 % of control | T/C (dose: 10.0 mg/kg/injection, schedule: Q01DX001 (im), vehicle: steriod suspending solution): 103 % of control | T/C (dose: 10.0 mg/kg/injection, schedule: Q01DX010 (sc), vehicle: olive oil, sesame oil, peanut oil): 101 % of control and 118 % of control | T/C (dose: 10.0 mg/kg/injection, schedule: Q01DX Z (ip), vehicle: methylcellulose (MC)): 200 % of control | T/C (dose: 10.0 mg/kg/injection, schedule: Q02DX004 (im), vehicle: olive oil, sesame oil, peanut oil): 153 % of control | T/C (dose: 12.0 mg/kg/injection, schedule: Q#A X Z (ip), vehicle: saline): 112 % of control | T/C (dose: 14.0 mg/kg/injection, schedule: Q07DX Z (ip), vehicle: saline): 152 % of control
